Reference: US20090197906A1, “REVERSION OF MALIGNANT PHENOTYPE WITH 9-HYDROXY ELLIPTICINE DERIVATIVES” (priority 2006, published 2009)

Key:
[1] = test system: actin in NIH 3T3 EF extract; test: fluorescence anisotropy assay of actin dynamics in cell extract; format: biochemical; details: for k (rate constant of F-actin elongation) / Δ mA (anisotropy enhancement, steady state F-actin): malignant NIH 3T3 EF extract
Description: Actin dynamics is known to be impaired in tumor cells with a subsequent decrease of F-actin to G-actin ratio. Actin dynamics has been quantified in tumor cell extracts using the fluorescence anisotropy assay which gains access to rate constant of F-actin elongation (k) and steady state concentration of F-actin (Δ mA).
All reactions were carried out at 22° C. and fluorescence anisotropy signal was recovered at 520 nm with excitation at 490 nm in a Beacon 2000 (Panvera). Alexa 488 actin (Molecular Probes) was centrifuged at 35 000 rpm for 2 h at 4° C. to sediment residual actin polymers in a Beckman L5-50B ultracentrifuge. […] 80% of the supernatant was withdrawn; the concentration was defined through fluorescence measurements (excitation at 490 nm and signal recovering at 520 nm). The ultracentrifuged actin concentration was calculated using the non ultracentrifuged Alexa 488 actin as a standard. The supernatant was aliquoted, frozen in liquid nitrogen and stored at −80° C.
Before experiment, an aliquot of ultracentrifuged Alexa 488 actin was diluted to a concentration of […] in G buffer (5 mM Tris pH 8.1, 2 mM CaCl2, 0.2 mM DTT, 0.2 mM ATP). 3 μl of diluted Alexa 488 actin was mixed in 168 μl of G buffer and actin monomers anisotropy was measured before the addition of 4 μl of polymerisation buffer (2.5 M KCl, 50 mM MgCl2, 25 mM ATP), 5 μl of G buffer in the presence or in the absence of the chemical molecule and 20 μl cellular extract of normal NIH 3T3 cells or malignant NIH 3T3 EF cells at 2 mg/ml. The final concentration of Alexa 488 actin was 4 nM. The ratio of unlabelled to labelled actin was about 140/4 nM. Measurements were made each 10 sec for 200 sec. Actin monomers anisotropy value was subtracted, yielding the anisotropy enhancement (Δ mA). The data were fitted with the equation Y=Ymax. [1−exp(−K.X)]. The curves start at zero and ascend to Ymax that corresponds to the steady state anisotropy value (Δ mA eq), with a rate constant K. Y is anisotropy values of which monomers anisotropy is subtracted and X is the time.

Melanoma B16 cells = test: antitumor activity, i.p. grafted B16 melanoma, survival; format: in vivo, B6D2F1 mice
Description: Antitumor activity against B16 melanoma can be assessed in mice using i.p. graft of malignant cells followed by i.p. treatment. This type of protocol which by-pass various biodisponibility parameters gives information roughly on the maximal antitumor activity which can be expected for a given tumor.
Melanoma B16 cells (4×10^5) were injected in B6D2F1 mice using i.p. route at J0. Drugs, dissolved in sterile distilled water (0.5 ml) were injected daily using as well i.p. route from J1 to J9 at various concentrations. Control mice received distilled water only according the same protocol.
Treated and control mice were counted daily. TIC (mean survival of treated mice/mean survival of control mice) was calculated at J9.

NCI-H187 = test: MTT cell proliferation assay; format: cell-based, human; details: NCI-H187, viability 72 h
Description: (§1) Growth studies were performed using the [3-(4,5 dimethylthiazol-2-yl)-2,5-diphenyl-2H-tetrazolium bromide] (Sigma) calorimetric assay.
(§2) About 1500 to 5000 cells, according to the cell line, were seeded in a 96-well culture plate 24 hours before adding increasing concentrations of BA016DD537 or BA016FZ539. The plate was incubated at 37° C. for 3 days. 10 μl MTT stock solution (5 mg/ml in phosphate buffer saline) was added to 90 μl of complete medium in each well, the incubation was continued for 3 h at 37° C. 100 μl of lysis buffer (10% sodium dodecyl sulfate, 1% HCl 1N; pH 4.7) was added to each well, and the plate was incubated overnight. The absorbance was determined using an Integrated EIA Management System (Labsystem) at a wavelength of 570 nm. The proliferation rates were calculated from the OD readings using the untreated cells as 100%.
(§3) The SRB protein stain assay was compared with the tetrazolium (MTT) colorimetric assay for in vitro chemosensitivity testing of various human small cell lung cancer cell lines.

NCI-H446 = test: MTT cell proliferation assay; format: cell-based, human; details: NCI-H446, viability 72 h, mean +/− SEM
Description: as §1, §2, §3

NCI-H510 = test: MTT cell proliferation assay; format: cell-based, human; details: NCI-H510, viability 72 h
Description: as §1, §2, §3

1205 Lu = test: cloning assay in methylcellulose (colony formation); format: cell-based, human; details: read-out: Inhibition of colony formation (methylcellulose) IC50
Description: (§4) Cells were embedded in complete culture medium supplemented with 0.8% methylcellulose (Methocel MC4000, Sigma), seeded in triplicate into 35-mm dishes (Greiner Bio-one Ref 627102, Dominique Dutscher) and incubated at 37° C. in a humidified 5% CO2 atmosphere. The number of cells seeded was 1000 cells per dish. After one to three weeks, according to cell lines, macroscopic clones were counted.

451 Lu = test: as above; format: cell-based, human; details: read-out: Inhibition of colony formation (methylcellulose) IC50
Description: as §4

A375 = test: as above; format: cell-based, human; details: read-out: Inhibition of colony formation (methylcellulose) IC50
Description: as §4

C9 = test: as above; format: cell-based, human; details: read-out: Inhibition of colony formation (methylcellulose) IC50
Description: as §4

HT144 = test: as above; format: cell-based, human; details: read-out: Inhibition of colony formation (methylcellulose) IC50
Description: as §4

Mia Paca-2 = test: as above; format: cell-based, human; details: read-out: Inhibition of colony formation (methylcellulose) IC50
Description: as §4

PANC-1 = test: as above; format: cell-based, human; details: read-out: Inhibition of colony formation (methylcellulose) IC50
Description: as §4

SKMEL28 = test: as above; format: cell-based, human; details: read-out: Inhibition of colony formation (methylcellulose) IC50
Description: as §4

B16F10 = test: SRB (sulforhodamine B) cell proliferation assay; format: cell-based, murine; details: B16F10 (Example 11); read-out: IC50 (SRB Test-72 h)
Description: Growth studies were performed using both MTT and SRB calorimetric assay (Sigma). About 1500 B16F10 or 3000 pancreatic cells (MIA PaCa-2 and PANC1) were seeded in a 96-well culture plate before adding increasing concentrations of monomesylate or bimesylate.
The plates were incubated at 37° C. for 3 days and then were treated depending on SRB or MTT protocols (see material and methods).
In these two cases, the proliferation rates were calculated from the OD readings using the untreated cells as 100%.

SMILES: Cc1c2cc[n+](CCN3CCCCC3)cc2c(C)c2c1[nH]c1ccc(O)cc12.[Cl-] [BA016DD537, 2-(β-piperidinoethyl)-9-hydroxyellipticinium chloride]
- effect on actin-F elongation rate constant and actin-F steady state value ([1]; NIH 3T3 EF cytosolic fractions): increases the actin-F elongation rate constant and the actin-F steady state value
- k (rate constant of F-actin elongation) ([1]; compound at 100 nM): 0.1636 s⁻¹
- Δ mA (anisotropy enhancement, steady state F-actin) ([1]; compound at 100 nM): 52.38
- k (rate constant of F-actin elongation) ([1]; compound at 200 nM): 0.1737 s⁻¹
- Δ mA (anisotropy enhancement, steady state F-actin) ([1]; compound at 200 nM): 61.17
- T/C (%) (mean survival of treated mice/mean survival of control mice) (Melanoma B16 cells; 0.39 mg/kg/inj. i.p. daily J1 to J9): 133%
- T/C (%) (mean survival of treated mice/mean survival of control mice) (Melanoma B16 cells; 0.78 mg/kg/inj. i.p. daily J1 to J9): 149%
- T/C (%) (mean survival of treated mice/mean survival of control mice) (Melanoma B16 cells; 1.56 mg/kg/inj. i.p. daily J1 to J9): 168%
- T/C (%) (mean survival of treated mice/mean survival of control mice) (Melanoma B16 cells; 3.12 mg/kg/inj. i.p. daily J1 to J9): 217%
- T/C (%) (mean survival of treated mice/mean survival of control mice) (Melanoma B16 cells; 6.25 mg/kg/inj. i.p. daily J1 to J9): 196%
- T/C (%) (mean survival of treated mice/mean survival of control mice) (Melanoma B16 cells; 7.5 mg/kg/inj. i.p. daily J1 to J9): 210%
- T/C (%) (mean survival of treated mice/mean survival of control mice) (Melanoma B16 cells; 10 mg/kg/inj. i.p. daily J1 to J9): 87%
- antitumor activity against B16 melanoma (T/C>125% = significant) (Melanoma B16 cells; i.p. graft, i.p. treatment): marked antitumor activity

SMILES: CS(=O)(=O)[O-].Cc1c2cc[n+](CCN3CCCCC3)cc2c(C)c2c1[nH]c1ccc(O)cc12 [BA016FZ539, 2-(betapiperidino-2-ethyl)-9-hydroxyellipticinium methanesulfonate]
- IC50 (NCI-H187): 7.9 µM
- IC50 (NCI-H446): 9.8 µM
- IC50 (NCI-H510): 14.8 µM
- IC50 (1205 Lu): 247 nM
- IC50 (451 Lu): 2000 nM
- IC50 (A375): 97 nM
- IC50 (C9): 132 nM
- IC50 (HT144): 125 nM
- IC50 (Mia Paca-2): 640 nM
- IC50 (PANC-1): 4300 nM
- IC50 (SKMEL28): 515 nM
- IC50 (B16F10): 4300 nM
